# According to patent publication US11066425B1, “Oxo-substituted compound” (SUMITOMO DAINIPPON PHARMA CO., LTD., priority 2018, dated 2021):
# “And” between values parts separate entries of the source, which are not always exact repeats. Equal entries are not always repeated. Structures can show the parent of a compound that is named as a salt.
# Assays:
# [1] = system: β-lactamase producing bacteria; assay: Test Example 3: MIC of meropenem (MEPM) combined with test compound at fixed 4 μg/mL, broth microdilution, ratio to MEPM alone; type: cell-based; conditions: for MIC of MEPM in combination with a test compound: test compound at fixed 4 μg/mL, numerator of the cell; for MIC of MEPM alone: no test compound, denominator of the cell, comparator for the example, in µg/mL
# Experimental: Test Example 3: Evaluation of Minimum Inhibitory Concentration (MIC) of MEPM Against β-Lactamase Producing Bacteria
# To evaluate the β-lactamase inhibitory activity of test compounds, the effect of combination of a test compound and a β-lactam agent against β-lactamase producing bacteria was evaluated. Meropenem (MEPM) was used as a β-lactam antimicrobial agent. The minimum inhibitory concentration (MIC) of MEPM against β-lactamase producing bacteria when a test compound was added at a fixed concentration (4 μg/mL) was measured by broth microdilution method (common ratio: 2).
# [2] = system: β-lactamase producing bacteria; assay: Test Example 1: MIC of meropenem (MEPM) combined with test compound at fixed 4 μg/mL, broth microdilution; type: cell-based; conditions: relative to MEPM alone
# Experimental: Test Example 1: Evaluation of Minimum Inhibitory Concentration (MIC) of MEPM Against β-Lactamase Producing Bacteria
# To evaluate the β-lactamase inhibitory activity of test compounds, the effect of combination of a test compound and a β-lactam agent against β-lactamase producing bacteria was evaluated. Meropenem (MEPM) was used as a β-lactam antimicrobial agent. The minimum inhibitory concentration (MIC) of MEPM against β-lactamase producing bacteria when a test compound was added at a fixed concentration (4 μg/mL) was measured by broth microdilution method (common ratio: 2). MIC of MEPM decreasing to less than 1/32 in combination with a test compound is indicated by A, decreasing from 1/32 to 1/16 is indicated by B, decreasing from ⅛ to ¼ is indicated by C, and decreasing to ½ or others are indicated by D. “-” represents untested cases.
# [3] = K. pneumoniae ATCC BAA-2344 (KPC)
# [4] = K. pneumoniae ATCC BAA-2524 (OXA-48)
Compound,"Decrease of MIC of MEPM in combination with a test compound, K. pneumoniae ATCC BAA-2344 (KPC) [2]","Decrease of MIC of MEPM in combination with a test compound, K. pneumoniae ATCC BAA-2524 (OXA-48) [2]",other results
"4,4-dihydroxy-8-({1-[3-(pyrrolidin-2-yl)propanoyl]azetidin-3-yl}oxy)-5-oxa-4-boranuidabicyclo[4.4.0]deca-l(6),7,9-triene-7-carboxylic acid disodium salt [Example 118]",,,"MIC of MEPM in combination with a test compound [1, 3]: ≤ 0.063 µg/mL; MIC of MEPM in combination with a test compound [1, 4]: ≤ 0.063 µg/mL"
"CC(C)[C@@H](N)C(=O)N1CC(Oc2ccc3c(c2C(=O)O)O[B-](O)(O)CC3)C1 [Example 28, 4,4-dihydroxy-8-[(1-D-valylazetidin-3-yl)oxy]-5-oxa-4-boranuidabicyclo[4.4.0]deca-l(6),7,9-triene-7-carboxylic acid disodium salt]",A (MIC of MEPM decreasing to less than 1/32 in combination with a test compound is indicated by A),B (decreasing from 1/32 to 1/16 is indicated by B),"Decrease of MIC of MEPM in combination with a test compound, E. coli ATCC BAA-2340 (KPC) [2]: A (MIC of MEPM decreasing to less than 1/32 in combination with a test compound is indicated by A)"
"N[C@@H](Cc1cnc[nH]1)C(=O)N1CC(Oc2ccc3c(c2C(=O)O)O[B-](O)(O)CC3)C1 [Example 29, 8-[(1-L-histidylazetidin-3-yl)oxy]-4,4-dihydroxy-5-oxa-4-boranuidabicyclo[4.4.0]deca-l(6),7,9-triene-7-carboxylic acid disodium salt]",A (MIC of MEPM decreasing to less than 1/32 in combination with a test compound is indicated by A),B (decreasing from 1/32 to 1/16 is indicated by B),
"CCN1CCN(C(=O)N[C@@H](C(=O)N2CC(Oc3ccc4c(c3C(=O)O)O[B-](O)(O)CC4)C2)c2ccccc2)C(=O)C1=O [Example 30, 8-[(1-{(2R)-2-[(4-ethyl-2,3-dioxopiperazine-1-carbonyl)amino]-2-phenylacetyl}azetidin-3-yl)oxy]-4,4-dihydroxy-5-oxa-4-boranuidabicyclo[4.4.0]deca-l(6),7,9-triene-7-carboxylic acid disodium salt]",A (MIC of MEPM decreasing to less than 1/32 in combination with a test compound is indicated by A),B (decreasing from 1/32 to 1/16 is indicated by B),
"O=C(O)c1c(OC2CN(C(=O)[C@H]3CCCN3)C2)ccc2c1O[B-](O)(O)CC2 [Example 31, 4,4-dihydroxy-8-[(1-D-prolylazetidin-3-yl)oxy]-5-oxa-4-boranuidabicyclo[4.4.0]deca-l(6),7,9-triene-7-carboxylic acid disodium salt]",A (MIC of MEPM decreasing to less than 1/32 in combination with a test compound is indicated by A),B (decreasing from 1/32 to 1/16 is indicated by B),
"O=C(O)c1c(OC2CN(C(=O)[C@@H]3CCCN3)C2)ccc2c1O[B-](O)(O)CC2 [Example 32, 4,4-dihydroxy-8-[(1-L-prolylazetidin-3-yl)oxy]-5-oxa-4-boranuidabicyclo[4.4.0]deca-l(6),7,9-triene-7-carboxylic acid disodium salt]",A (MIC of MEPM decreasing to less than 1/32 in combination with a test compound is indicated by A),B (decreasing from 1/32 to 1/16 is indicated by B),
"NCCc1cn(CC(=O)N2CC(Oc3ccc4c(c3C(=O)O)O[B-](O)(O)CC4)C2)cn1 [Example 33, 8-[(1-{[4-(2-aminoethyl)-1H-imidazol-1-yl]acetyl}azetidin-3-yl)oxy]-4,4-dihydroxy-5-oxa-4-boranuidabicyclo[4.4.0]deca-l(6),7,9-triene-7-carboxylic acid disodium salt]",A (MIC of MEPM decreasing to less than 1/32 in combination with a test compound is indicated by A),B (decreasing from 1/32 to 1/16 is indicated by B),
"O=C(O)c1c(OC2CN(C(=O)c3ccc(O)c(O)c3)C2)ccc2c1OB(O)CC2 [Example 34, 7-{[1-(3,4-dihydroxybenzoyl)azetidin-3-yl]oxy}-2-hydroxy-3,4-dihydro-2H-1,2-benzoxaborinine-8-carboxylic acid]",A (MIC of MEPM decreasing to less than 1/32 in combination with a test compound is indicated by A),B (decreasing from 1/32 to 1/16 is indicated by B),
"O=C(O)c1c(OC2CN(C(=O)NO)C2)ccc2c1OB(O)CC2 [Example 35, 2-hydroxy-7-{[1-(hydroxycarbamoyl)azetidin-3-yl]oxy}-3,4-dihydro-2H-1,2-benzoxaborinine-8-carboxylic Acid]",A (MIC of MEPM decreasing to less than 1/32 in combination with a test compound is indicated by A),B (decreasing from 1/32 to 1/16 is indicated by B),"Decrease of MIC of MEPM in combination with a test compound, E. coli ATCC BAA-2340 (KPC) [2]: A (MIC of MEPM decreasing to less than 1/32 in combination with a test compound is indicated by A)"
"Cl.Cl.NC(C(=O)N1CC(Oc2ccc3c(c2C(=O)O)OB(O)CC3)C1)c1c[nH]cn1 (centres unmarked) [Example 40, 7-({1-[2-amino-2-(1H-imidazol-4-yl)(2H)ethanoyl]azetidin-3-yl}oxy)-2-hydroxy-3,4-dihydro-2H-1,2-benzoxaborinine-8-carboxylic Acid Dihydrochloride]",,,"MIC of MEPM in combination with a test compound [1, 3]: 0.063 µg/mL; MIC of MEPM in combination with a test compound [1, 4]: 0.063 µg/mL"
"O=C(O)c1c(OC2CN(C(=O)C[C@@H]3CCCN3)C2)ccc2c1O[B-](O)(O)CC2.O=C(O)c1c(OC2CN(C(=O)C[C@@H]3CCCN3)C2)ccc2c1O[B-](O)(O)CC2.[Na+].[Na+] [Example 127, 4,4-dihydroxy-8-[(1-{[(2S)-pyrrolidin-2-yl]acetyl}azetidin-3-yl)oxy]-5-oxa-4-boranuidabicyclo[4.4.0]deca-l(6),7,9-triene-7-carboxylic acid disodium salt]",,,"MIC of MEPM in combination with a test compound [1, 3]: ≤ 0.063 µg/mL; MIC of MEPM in combination with a test compound [1, 4]: ≤ 0.063 µg/mL"
"C[C@@H](O)[C@H]1C(=O)N2C(C(=O)O)=C(S[C@@H]3CN[C@H](C(=O)N(C)C)C3)[C@H](C)[C@H]12 [MEPM, meropenem, reference compound]",,,"MIC of MEPM alone ([1]; E. coli ATCC BAA-2340 (KPC)): 4 and 8; MIC of MEPM alone [1, 4]: 2 and 1"
